Experimental data as given in ChEMBL document CHEMBL5500423, “More than an Amide Bioisostere: Discovery of 1,2,4-Triazole-containing Pyrazolo[1,5-a]pyrimidine Host CSNK2 Inhibitors for Combatting β-Coronavirus Replication” (J Med Chem, 2024).
Calls of active or inactive are those of the source. The rule behind the calls is not given here.

Columns and labels:
Type in all cases: functional, organism-based
[1] = tested on: SARS-CoV-2; conditions: Severe acute respiratory syndrome coronavirus 2; MA10; dose 10.0 mg/kg, route ip, time 36.0 hrs
[2] = tested on: Mus musculus; conditions: CD-1, dose 10.0 mg/kg, route ip, time 36.0 hrs
[3] = tested on: Mus musculus; conditions: CD-1, dose 10.0 mg/kg, route ip, time 36.0 hrs; remark: listed apart in the source
[4] = tested on: SARS-CoV-2; experiment: Antiviral activity against activity SARS-CoV-2 infected in human A549-ACE2 cells assessed as inhibition of viral replication pretreated with cells for 1 hrs followed by viral infected for 2 hrs and replacement with fresh medium containing compounds and measured 48 hrs post infection; conditions: Severe acute respiratory syndrome coronavirus 2, A549-ACE2

Structure (SMILES): CCN(CCN)c1ccc(Nc2cc(NC3CC3)n3ncc(C#N)c3n2)cc1-n1cnnc1
- Activity [1]: inactive
- inhibition [2]: inactive
- inhibition [3]: inactive
- IC50 [4]: 390 nM
